Legend:
p38α = p38α (Homo sapiens, UniProt Q16539); details: cited from earlier work
HRGECs / neutrophils [1] = experiment: Neutrophil adhesion to SLE serum-treated HRGECs, by dose of the patients' medication; type: cell-based, human; details: serum of SLE patients on differing doses
Description: HRGECs were cultured in 48 well fibronectin-coated plates at 80 000 cells per well in complete growth media until confluent. HRGECs were washed, serum starved for 1 hour in ECM supplemented with 0.5% FBS, washed again. Treatments consisting of ECM only, 2.5% serum (lupus or control) in ECM or 100 ng/mL TNF-alpha (Thermo Fisher Scientific) (positive control) in ECM were added to the HRGECs, and cells underwent incubation for 3 hours at 37° C. HRGECs were then washed three times with RPMI-1640 (without phenol red); 6×10^5 Calcein AM-labelled neutrophils were added to each well of the treated HRGECs. Cells were incubated for 20 min at 37° C. and washed five times with PBS (without Ca^2+/Mg^2+). Fluorescence intensity was quantified before the first wash and after the fifth wash to determine percent cell adherence, with all values then normalized to untreated controls. Fluorescence intensity was measured from the top of the plate at 485 nm excitation, 520 nm emission using a fluorescence microplate reader (Biotek HT Synergy).

HRGECs / neutrophils [2] = experiment: Neutrophil migration to conditioned media of SLE serum-treated HRGECs, by dose of the patients' medication; type: cell-based, human; details: serum of SLE patients on differing doses
Description: HRGECs were plated at 4×10^4 cells per well of a 48-well fibronectin-coated plate in complete growth media at 37° C. with 5% CO2. On confluence, cells were washed three times in ECM. Cells were then cultured with 10% serum (SLE or control) in ECM for 3 hours and then washed three times in ECM. Cells were serum starved overnight in ECM. The resulting conditioned media (CM) was then collected and passed through a 0.2 μm pore membrane to remove any cellular debris and frozen at −80° C. for later use.
Transwell membrane chambers with 3 μm pores from a 96-well Migration Plate (Corning, Corning, N.Y., USA) were equilibrated in RPMI for 1 hour at 37° C. Then RPMI was removed. CM or negative (CM from serum-free treatment)/positive (10^−7 M interleukin (IL)-8 (R&D Systems, Minneapolis, Minn., USA)) controls were added to the 96-well black-walled receiver wells (Corning); 1.5×10^5 neutrophils in ECM were then added to the upper chamber of each insert and incubated for 1 hour to allow for neutrophil migration toward the conditioned medium. Cells that migrated through the membrane into the CM were then labelled with Calcein AM and incubated for 1 hour at 37° C. as described above. Fluorescence intensity was then measured from the bottom of the plate at 485 nm excitation, 520 nm emission using a fluorescence microplate reader (Biotek HT Synergy). A standard curve of Calcein AM-labelled neutrophils (using 1.5×10^5, 1.0×10^5, 5.0×10^4, 2.5×10^4, 1.25×10^4, 0.625×10^4 and 0 neutrophils) was created and fluorescence intensity was quantified on the microplate reader. The linear equation was then calculated and fluorescence intensity of samples could then be input into the linear equation to determine neutrophil cell number. The fluorescence intensity of migrated neutrophils in the lower chamber was measured as described (Jones Buie et al., Lupus Sci Med 2019; 6:e000294). All values were normalized to untreated controls.

p38α and p38β2 = details: cited from earlier work
iNOS = iNOS (Mus musculus, UniProt P29477); details: cited from earlier work
iNOS, sequence (P29477 whole entry): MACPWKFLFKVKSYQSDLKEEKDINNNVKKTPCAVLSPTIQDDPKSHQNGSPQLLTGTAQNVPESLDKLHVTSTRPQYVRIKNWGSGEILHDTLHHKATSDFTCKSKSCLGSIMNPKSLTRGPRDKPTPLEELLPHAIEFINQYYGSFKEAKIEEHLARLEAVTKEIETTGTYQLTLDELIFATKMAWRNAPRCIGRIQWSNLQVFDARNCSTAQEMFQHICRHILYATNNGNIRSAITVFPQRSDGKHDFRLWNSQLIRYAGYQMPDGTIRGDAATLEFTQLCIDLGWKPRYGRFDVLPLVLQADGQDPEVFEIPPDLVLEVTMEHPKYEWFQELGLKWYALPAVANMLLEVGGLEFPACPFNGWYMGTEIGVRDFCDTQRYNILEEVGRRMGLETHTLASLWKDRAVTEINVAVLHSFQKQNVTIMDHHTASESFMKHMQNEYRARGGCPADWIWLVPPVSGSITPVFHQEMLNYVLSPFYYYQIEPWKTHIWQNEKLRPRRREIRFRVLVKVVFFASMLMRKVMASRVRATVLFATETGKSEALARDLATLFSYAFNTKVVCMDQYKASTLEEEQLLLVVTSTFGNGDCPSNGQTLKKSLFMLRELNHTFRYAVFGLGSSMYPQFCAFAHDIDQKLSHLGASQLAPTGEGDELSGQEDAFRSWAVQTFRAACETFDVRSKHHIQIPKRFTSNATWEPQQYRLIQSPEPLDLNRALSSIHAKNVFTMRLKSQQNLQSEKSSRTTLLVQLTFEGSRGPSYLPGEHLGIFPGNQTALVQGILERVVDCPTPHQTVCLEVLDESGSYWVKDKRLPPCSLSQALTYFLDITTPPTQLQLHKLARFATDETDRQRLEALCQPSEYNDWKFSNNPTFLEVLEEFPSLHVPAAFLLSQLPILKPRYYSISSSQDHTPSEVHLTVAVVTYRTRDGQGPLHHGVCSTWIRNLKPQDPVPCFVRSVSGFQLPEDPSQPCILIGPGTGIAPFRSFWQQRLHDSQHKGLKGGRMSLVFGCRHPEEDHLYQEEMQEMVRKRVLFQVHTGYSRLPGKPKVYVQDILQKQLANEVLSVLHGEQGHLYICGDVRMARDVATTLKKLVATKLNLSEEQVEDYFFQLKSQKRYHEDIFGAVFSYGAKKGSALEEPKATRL

[3] = tested on: humans with phenylketonuria and tetrahydrobiopterin deficiencies; details: humans with phenylketonuria and tetrahydrobiopterin deficiencies (Smith 2019); cited from earlier work
[4] = tested on: human renal glomerular endothelial cells (HRGEC); experiment: NO production (DAF-FM with urate) by HRGEC treated with LN serum; type: cell-based; details: urate added, 5 μM L-Sepiapterin, 25 μM VAS2870
Description: The inflammatory phenotype of HUVECs differs from microvascular endothelial cells and may not reflect mechanisms in glomerular endothelial cells. To confirm the uncoupling effects lead to functional changes in uncoupling and NO production by EC treated with LN serum in HRGEC, HRGEC as in FIG. 10 was treated with LN serum in a black walled 96-well plate. […] NO production was quantified using DAF-FM fluorescence with urate added to prevent ONOO— fluorescence. […] While not wishing to be bound to any particular theory, one possible explanation for this finding is that uncoupled NOS is a significant source of ROS in LN (Njoku, C. J. et al., 2005, J. Investig. Med., 53:347-52).
HRGECs are plated at 3×10^4 cells per well in a 96-well black-walled plate and cultured in complete growth media at 37° C. in a humidified atmosphere with 5% CO2. Upon confluence, complete growth medium is removed, and cells washed in ECM-prf (phenol red free). Cells are incubated with 2 μM DAF-FM Diacetate for 60 minutes at 37° C., then cells washed in ECM-prf. […] 0.6 mM DPTA NONOate (Abcam) is a positive control, while L-NAME (100 μM) is a negative control. […] Plates are incubated for 30 minutes at 37° C. and read at 485/528 excitation/emission on a microplate reader (BioTek HT Synergy). […]

[5] = tested on: BALB/c mice with Angiotensin II minipumps; experiment: Systolic blood pressure in Angiotensin II minipump hypertension; type: in vivo
Description: Hypertension was created in some BALB/c mice with Angiotensin II minipumps. Mice were treated half with CSNA-001 (L-sep) 8 days after the pumps were placed and baseline SBP checked. The decrease in systolic BP was significant in the treated mice but not the untreated (FIG. 21 and FIG. 22).

intracellular BH4 = details: compared with exogenous BH4 (Crabtree 2011); cited from earlier work
HUVECs / neutrophils = experiment: Neutrophil adhesion assay on HUVECs; type: cell-based, human
Description: HUVECs were plated at 5.0×10^4 cells/mL in a 24-well plate (Costar) and allowed to adhere overnight. HUVECs were serum starved for 3 hours in phenol-red free 0.2% FBS EBM media (Lonza) prior to activation with 10% sera for 4 hours. Tumor necrosis factor-α (100 ng/mL) was used as the positive control. Neutrophils isolated from healthy human blood as outlined previously were labelled with Calcein AM (Life Technologies) at 5×10^5 cells/mL. Neutrophils were washed gently four times in warm serum-free EBM culture media prior to co-culturing with HUVECs for 60 min after which non-adherent cells were removed by repeated gentle washing (four times) with EBM culture media. Fluorescence intensity was measured at 520 nM with a FLUOStar Omega microplate reader (Cary, N.C., USA), and images were captured using confocal microscopy. Data are reported as ratios of the number of neutrophils to the number of endothelial cells as averages from three different visual fields.

[6] = tested on: C57B6/J mice with angiotensin II minipump; experiment: Tail cuff blood pressure response to acetylcholine, angiotensin II model of hypertension; type: in vivo; details: 10 mg/kg/d by gavage vs vehicle
Description: To determine the effect of sepiapterin in a mouse model of hypertension, C57B6/J mice were implanted with an angiotensin II minipump for 2 weeks to induce hypertension. The animals were then treated with either sepiapterin 10 mg/kg/d by gavage or vehicle. A tail cuff measure of blood pressure was taken followed by injection of acetylcholine and a second tail cuff measure of blood pressure.

[7] = tested on: human umbilical vein endothelial cells (HUVECs); experiment: Measurement of nitric oxide production (DAF-FM fluorescence, flow cytometry) in serum-cultured HUVECs; type: cell-based; details: for DAF-FM MFI, a marker of NO production: L-sep 5 μM 6 hours
Description: Primary human umbilical vein endothelial cells from pooled donors were purchased from Lonza (Walkersville, Md., USA) and cultured according to the manufacturer's instructions in 5% CO2 at 37° C. in humidified air. Cells were cultured in endothelial cell basal medium-2 (EBM-2) supplemented with EBM-2 SingleQuot (Lonza), pH 7.6-8.0. Media was changed every other day until cells were 70%-80% confluent. HUVECs were sub-cultured using TryPLE Express, pH 8.0 (ThermoFisher Scientific, Waltham, Mass., USA). Cell growth was limited to 12 population doublings, and all experiments were carried out using cells between passages 3-5. For serum experiments, cells were cultured with 20%-50% serum for 6 or 24 hours prior to further analysis.
For real-time detection of NO production in HUVECs, 1.2×10^5 cells were seeded in a 12-well tissue culture plate. Following adherence, cells were serum starved for 6 hours in endothelial basal media (EBM) containing 0.2% fetal bovine serum (FBS). Cells were stimulated with either 50% healthy or SLE sera±L-sep (5 μM; 6 hours), the eNOS-specific inhibitor, Nω-Nitro-L-arginine (L-NNA, 10 μM; 30 min pre-incubation (Tocris; Bristol, UK)) or the NO donor 3,3′-diamino-4′-methoxyflavone (DD1, 10 μM, Tocris). Following stimulation, cells were washed twice with phosphate buffered saline (PBS) and loaded with 1 μM DAF-FM diacetate (4-amino-5-methylamino-2′,7′-difluorofluorescein diacetate, 1 μM) (ThermoFisher Scientific) in phenol red-free EBM for 30-45 min. […] A population of 2000-10 000 cells were gated to remove doublets and controls and analyzed based on their fluorescence intensities using a FACS Calibur flow cytometer (Becton Dickenson, San Diego, USA). The mean fluorescence intensity (MFI) was normalized to respective populations in unstimulated cells. In order to discriminate between NO and other gaseous molecules previously shown to augment DAF-FM fluorescence, a urate assay was performed to optimize the assay (data not shown).

TLR 7/9 = details: cited from earlier work

p38α, sequence (Q16539 whole entry): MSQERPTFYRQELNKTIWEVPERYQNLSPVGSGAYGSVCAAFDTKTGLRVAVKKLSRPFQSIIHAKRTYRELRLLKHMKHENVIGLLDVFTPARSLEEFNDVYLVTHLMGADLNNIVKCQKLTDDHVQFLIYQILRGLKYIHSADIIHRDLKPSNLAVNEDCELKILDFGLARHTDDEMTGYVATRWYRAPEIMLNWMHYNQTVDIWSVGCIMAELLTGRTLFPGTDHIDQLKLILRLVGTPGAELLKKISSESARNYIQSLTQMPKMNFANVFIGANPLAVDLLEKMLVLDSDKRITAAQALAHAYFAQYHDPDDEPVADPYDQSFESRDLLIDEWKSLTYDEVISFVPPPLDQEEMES

## Cc1c(F)cc(C(=O)NC2CC2)cc1-c1c(F)cn2c(C(C)(C)C)nnc2c1F [AL 8697]
p38α
  IC50: 6 nM

## COc1c(C)c2c(c(O)c1C/C=C(\C)CCC(=O)OCCN1CCOCC1)C(=O)OC2 [CellCept, mycophenolate mofetil]
HRGECs / neutrophils [1]
  neutrophil adhesion, dosing effects of medication: No difference
HRGECs / neutrophils [2]
  neutrophil migration, dosing effects of medication: No difference

## Cc1ccccc1C(=O)c1ccc(Nc2ccc(Br)cc2N)cc1Cl [EO1428]
p38α and p38β2
  IC50: 74 nM

## CC(=N)NCCCC[C@H](N)C(=O)O [L-NIL]
iNOS
  IC50: 3300 nM

## CC(O)C(=O)C1=Nc2c([nH]c(N)nc2=O)NC1 [L-sepiapterin, 2-amino-6-[-2-hydroxypropanoyl]-7,8-dihydro-1H-pteridin-4-one]
[3]
  safety profile: favorable
[4]
  NO production (DAF-FM fluorescence): increased more
[5]; treated mice, 20 mg/kg daily, Day 7 to Day 14, cuff pressure
  decrease in systolic BP: significant
[5]; treated vs untreated mice
  mean blood pressure responses to acetyl choline: significant differences
[5]; treated vs untreated mice, 20 mg/kg daily
  differences in reduction of systolic blood pressure: about 8 mmHg
Intracellular BH4
  intracellular BH4 levels: more effectively than exogenous BH4
HUVECs / neutrophils; SLE serum cultured HUVECs
  neutrophil adhesion induced by SLE serum: did not reverse neutrophil adhesion
HUVECs / neutrophils; cells cultured in EBM-2 media, p<0.05
  neutrophil adhesion: reversed neutrophil adhesion
[6]
  endothelial function (difference in tail cuff pressure after acetylcholine): improves endothelial function
[7]; SLE serum cultured HUVECs, 50% serum, vs SLE cultured cells without L-sepiapterin, p<0.01
  DAF-FM MFI, a marker of NO production: significantly increased
[7]; control serum cultured HUVECs
  DAF-FM MFI, a marker of NO production: not observed
[7]; vs ratios in control and healthy serum culture conditions, p<0.001 and <0.01
  ratio in MFI-fold change between SLE serum+L-sepiapterin and SLE serum: significantly different

## NCCCC[C@H](N[C@@H](CCc1ccccc1)C(=O)O)C(=O)N1CCC[C@H]1C(=O)O [Lisinopril]
HRGECs / neutrophils [1]
  neutrophil adhesion, dosing effects of medication: No difference
HRGECs / neutrophils [2]
  neutrophil migration, dosing effects of medication: No difference

## C[C@]12C=CC(=O)C=C1CC[C@@H]1[C@@H]2C(=O)C[C@@]2(C)[C@H]1CC[C@]2(O)C(=O)CO [Prednisone, prednisone]
HRGECs / neutrophils [1]
  neutrophil adhesion, dosing effects of medication: No difference
HRGECs / neutrophils [2]
  neutrophil migration, dosing effects of medication: No difference

## c1ccc(Cn2nnc3c(Sc4nc5ccccc5o4)ncnc32)cc1 [VAS2870, reference compound]
[4]
  NO production (DAF-FM fluorescence): not effective

## CCN(CCO)CCCC(C)Nc1ccnc2cc(Cl)ccc12 (stereo not shown) [hydroxychloroquine]
HRGECs / neutrophils [1]
  neutrophil adhesion, dosing effects of medication: No difference
TLR 7/9
  IC50: ~4000 nM
HRGECs / neutrophils [2]
  neutrophil migration, dosing effects of medication: No difference

From patent publication US20230077104A1, “L-SEPIAPTERIN AND METHODS OF USE FOR TREATING DISEASES AND DISORDERS” (THE UNITED STATES GOVERNMENT AS REPRESENTED BY THE …, priority 2020, published 2023)
